Structures can show the parent of a compound that is named as a salt.
What follows are compounds tested on HBsAg (assay: HBsAg assay). Settings: Hepatitis B virus, HepG2.2.15, 144 h, read-out: sAg EC50, μM, HepG2.2.15 cells, day 6.
Assay type: cell-based, hepatitis B virus
Experimental: Inhibition of HBsAg was determined in HepG2.2.15 cells. Cells were maintained in culture medium containing 10% fetal calf serum, […], Glutamine, penicillin/streptomycin. Cells were seeded in 96-well collagen-coated plate at a density of 30,000 cells/well. Serially diluted compounds were added to cells next day at the final DMSO concentration of 0.5%. Cells were incubated with compounds for 2-3 days, after which medium was removed. Fresh medium containing compounds was added to cells for additional 3-4 days. At day 6 after exposure of compounds, supernatant was collected, the HBsAg immunoassay (microplate-based chemiluminescence immunoassay kits, CLIA, Autobio Diagnosics Co., Zhengzhou, China, Catalog # CL0310-2) was used to determine the level of HBsAg according to manufactory instruction. Dose-response curves were generated and the EC50 value (effective concentrations that achieved 50% inhibitory effect) were determined using XLfit software. In addition, cells were seeded at a density of 5,000 cells/well for determination of cell viability in the presence and absence of compounds by using CellTiter-Glo reagent (Promega). Tables 1-3 show EC50 values obtained by the HBsAg assay for selected compounds.

Row | SMILES | EC50 [µM]
1 | COCCCOc1cc2c(nc1Cl)-c1cc(=O)c(C(=O)O)cn1C1(CO2)CC(C)C1 (stereo not shown) [Example 73, 2′-Chloro-3′-(3-methoxypropoxy)-3-methyl-11′-oxo-6′H,11′H-spiro[cyclobutane-1,7′-dipyrido[1,2-d:2′,3′-f][1,4]oxazepine]-10′-carboxylic acid] | 0.26
2 | COCCCOc1cc2c(nc1Cl)-c1cc(=O)c(C(=O)O)cn1C1C(CCC1(C)C)O2 (stereo not shown) [Example 81, 6-Chloro-7-(3-methoxypropoxy)-12,12-dimethyl-3-oxo-9a,11,12,12a-tetrahydro-3H,10H-cyclopenta[b]dipyrido[1,2-d:2′,3′-f][1,4]oxazepine-2-carboxylic acid] | 0.011
3 | COCCCOc1cc2c(nc1Cl)-c1cc(=O)c(C(=O)O)cn1[C@H](C(C)(C)C)CO2 [Example 66, (R)-7-(Tert-butyl)-2-chloro-3-(3-methoxypropoxy)-11-oxo-6,7-dihydro-11H-dipyrido[1,2-d:2′,3′-f][1,4]oxazepine-10-carboxylic acid] | 0.002
4 | COc1cc2c(cc1Cl)-c1cc(=O)c(C(=O)O)cn1[C@H](C(C)C)CO2 (single isomer, unassigned) [Example 3] | 0.032
5 | CCOC(=O)c1cn2c(cc1=NO)-c1cc(Cl)c(OC)cc1OCC2C(C)C (stereo not shown) [Example 150, Ethyl 2-chloro-11-(hydroxyimino)-7-isopropyl-3-methoxy-6,7-dihydro-11H-benzo[f]pyrido[1,2-d][1,4]oxazepine-10-carboxylate] | 24
6 | CC(C)(C)C1Cc2cc3c(cc2-c2cc(=O)c(C(=O)O)cn21)OCC1(COC1)CO3 (stereo not shown) [Example 93, 6′-(Tert-butyl)-2′-oxo-6′,7′-dihydro-2′H,10′H,12′H-spiro[oxetane-3,11′-[1,4]dioxepino[2,3-g]pyrido[2,1-a]isoquinoline]-3′-carboxylic acid] | 0.42
7 | COCCCOc1cc2c(cc1Cl)-c1cc(=O)c(N)cn1C(C(C)(C)C)C2 (stereo not shown) [Example 120, 3-Amino-6-tert-butyl-10-chloro-9-(3-methoxypropoxy)-6H,7H-pyrido[2,1-a]isoquinolin-2-one hydrochloride] | 3.9
8 | CC(C)[C@@H]1COc2cc(OCCCNC(=O)OC(C)(C)C)c(Cl)cc2-c2cc(=O)c(C(=O)O)cn21 [Example 42, (R)-3-(3-((tert-Butoxycarbonyl)amino)propoxy)-2-chloro-7-isopropyl-11-oxo-6,7-dihydro-11H-benzo[f]pyrido[1,2-d][1,4]oxazepine-10-carboxylic acid] | 0.042
9 | COc1cc2c(cc1Cl)-c1cc(=O)c(C(=O)O)cn1[C@H](CC(C)C)CO2 (single isomer, unassigned) [Example 7] | 0.61
10 | COCCCOc1cc2c(cc1Cl)-c1cc(=O)c(C(=O)O)cn1C(C(C)C)CO2 (stereo not shown) [Example 33, 2-Chloro-7-isopropyl-3-(3-methoxypropoxy)-11-oxo-6,7-dihydro-11H-benzo[f]pyrido[1,2-d][1,4]oxazepine-10-carboxylic acid] | 0.029
11 | COCCCOc1cc2c(cc1Cl)-c1cc(=O)c(NC(=O)OCc3ccccn3)cn1C(C(C)(C)C)C2 (stereo not shown) [Example 123, Pyridin-2-ylmethyl (6-(tert-butyl)-10-chloro-9-(3-methoxypropoxy)-2-oxo-6,7-dihydro-2H-pyrido[2,1-a]isoquinolin-3-yl)carbamate] | 2.4
12 | CCOP(=O)(OCC)c1cn2c(cc1=O)-c1cc(Cl)c(OCCCOC)cc1CC2C(C)(C)C (stereo not shown) [Example 105, Diethyl (6-(tert-butyl)-10-chloro-9-(3-methoxypropoxy)-2-oxo-6,7-dihydro-2H-pyrido[2,1-a]isoquinolin-3-yl)phosphonate] | 6.1
13 | COCCCOc1cc2c(nc1OC)-c1cc(=O)c(C(=O)O)cn1[C@@H](C(C)C)C2 (single isomer, unassigned) [Example 21] | 0.53
14 | COCCCOc1cc2c(cc1OC)-c1cc(=NOC)c(C(=O)OC)cn1C(C(C)C)C2 (stereo not shown) [Example 148, Methyl 6-isopropyl-10-methoxy-2-(methoxyimino)-9-(3-methoxypropoxy)-6,7-dihydro-2H-pyrido[2,1-a]isoquinoline-3-carboxylate] | 13
15 | COCCCOc1cc2c(cc1Cl)-c1cc(=O)c(C(=O)O)cn1[C@@H](C(C)C)CO2 [Example 28, (S)-2-Chloro-7-isopropyl-3-(3-methoxypropoxy)-11-oxo-6,7-dihydro-11H-benzo[f]pyrido[1,2-d][1,4]oxazepine-10-carboxylic acid] | 0.46
16 | COCCCOc1cc2c(cc1Cl)-c1cc(=O)c(NC(=O)OC(C)(C)C)cn1[C@H](C(C)C)CO2 [Example 134, Tert-butyl (R)-(2-chloro-7-isopropyl-3-(3-methoxypropoxy)-11-oxo-6,7-dihydro-11H-benzo[f]pyrido[1,2-d][1,4]oxazepin-10-yl)carbamate] | 45
17 | COc1cc2c(nc1Cl)-c1cc(=O)c(C(=O)O)cn1[C@H](C(C)C)CO2 [Example 75, (R)-2-Chloro-7-isopropyl-3-methoxy-11-oxo-6,7-dihydro-11H-dipyrido[1,2-d:2′,3′-f][1,4]oxazepine-10-carboxylic acid] | 0.026
18 | COCCOc1cc2c(cc1Cl)-c1cc(=O)c(C(=O)O)cn1[C@@H](C(C)C)CO2 (single isomer, unassigned) [Example 31] | 0.8
19 | CC(C)[C@@H]1COc2cc(OCC(F)(F)F)c(Cl)cc2-c2cc(=O)c(C(=O)O)cn21 [Example 34, (R)-2-Chloro-7-isopropyl-11-oxo-3-(2,2,2-trifluoroethoxy)-6,7-dihydro-11H-benzo[f]pyrido[1,2-d][1,4]oxazepine-10-carboxylic acid] | 0.086
20 | CC(C)[C@@H]1CCc2cc3c(nc2-c2cc(=O)c(C(=O)O)cn21)OCCO3 [Example 170, (S)-6-Isopropyl-2-oxo-2,6,7,8,11,12-hexahydro-[1,4]dioxino[2′,3′:5,6]pyrido[2,3-c]pyrido[1,2-a]azepine-3-carboxylic acid e] | 5
21 | Cc1cc2c(cc1OCCCO)OC[C@@H](C(C)C)n1cc(C(=O)O)c(=O)cc1-2 [Example 60, (R)-3-(3-Hydroxypropoxy)-7-isopropyl-2-methyl-11-oxo-6,7-dihydro-11H-benzo[f]pyrido[1,2-d][1,4]oxazepine-10-carboxylic acid] | 0.057
22 | CN=c1cc2n(cc1C(=O)O)C(C(C)C)Cc1cc(OCCCOC)c(OC)cc1-2 (stereo not shown) [Example 147] | 0.65
23 | CCC1(C(C)C)Cc2cc(OCCCOC)c(OC)nc2-c2cc(=O)c(C(=O)O)cn21 (stereo not shown) [Example 163, 6-Ethyl-6-isopropyl-2-methoxy-3-(3-methoxypropoxy)-10-oxo-5,10-dihydro-6H-pyrido[1,2-h][1,7]naphthyridine-9-carboxylic acid] | 0.13
24 | Cc1cc2c(cc1OCC(F)(F)F)OC[C@@H](C(C)C)n1cc(C(=O)O)c(=O)cc1-2 [Example 59, (R)-7-Isopropyl-2-methyl-11-oxo-3-(2,2,2-trifluoroethoxy)-6,7-dihydro-11H-benzo[f]pyrido[1,2-d][1,4]oxazepine-10-carboxylic acid] | 0.089
25 | CC(C)COc1cc2c(cc1C1CC1)-c1cc(=O)c(C(=O)O)cn1[C@H](C(C)C)CO2 [Example 44, (R)-2-Cyclopropyl-3-isobutoxy-7-isopropyl-11-oxo-6,7-dihydro-11H-benzo[f]pyrido[1,2-d][1,4]oxazepine-10-carboxylic acid] | 0.006
26 | COCCCOc1cc2c(nc1OC)-c1cc(=O)c(C(=O)O)cn1C(C)(C(C)C)C2 (stereo not shown) [Example 155, 6-Isopropyl-2-methoxy-3-(3-methoxypropoxy)-6-methyl-10-oxo-5,10-dihydro-6H-pyrido[1,2-h][1,7]naphthyridine-9-carboxylic acid] | 0.002
27 | COCCCOc1cc2c(cc1Cl)-c1cc(=O)c(-n3nn[nH]c3=O)cn1C(C(C)(C)C)C2 (stereo not shown) [Example 114, 6-(Tert-butyl)-10-chloro-9-(3-methoxypropoxy)-3-(5-oxo-4,5-dihydro-1H-tetrazol-1-yl)-6,7-dihydro-2H-pyrido [2,1-a]isoquinolin-2-one] | 3
28 | COCCCOc1cc2c(cc1Cl)-c1cc(=O)c(-c3ccccn3)cn1C(C(C)(C)C)C2 (stereo not shown) [Example 133, 6-(Tert-butyl)-10-chloro-9-(3-methoxypropoxy)-3-(pyridin-2-yl)-6,7-dihydro-2H-pyrido[2,1-a]isoquinolin-2-one] | 4

Same assay, conditions: read-out: sAg EC50; HepG2.2.15 cells, day 6

Row | SMILES | EC50 [µM]
29 | COCCCOc1cc2c([nH]c1=O)-c1cc(=O)c(C(=O)O)cn1C(C(C)C)C2 (single isomer, unassigned) [Example 166, 6-Isopropyl-3-(3-methoxypropoxy)-2,10-dioxo-2,5,6,10-tetrahydro-1H-pyrido[1,2-h][1,7]naphthyridine-9-carboxylic acid] | 0.45
30 | CC(C)(C)C1Cc2cc3c(cc2-c2cc(=O)c(C(=O)O)cn21)OCC1(COC1)CO3 (single isomer, unassigned) [Example 94, 6′-(Tert-butyl)-2′-oxo-6′,7′-dihydro-2′H,10′H,12′H-spiro[oxetane-3,11′-[1,4]dioxepino[2,3-g]pyrido[2,1-a]isoquinoline]-3′-carboxylic acid] | 2.2
31 | COCCCOc1cc2c(nc1OC)-c1cc(=O)c(C(=O)O)cn1C(C)(C(C)C)C2 (single isomer, unassigned) [Example 156, 6-Isopropyl-2-methoxy-3-(3-methoxypropoxy)-6-methyl-10-oxo-5,10-dihydro-6H-pyrido[1,2-h][1,7]naphthyridine-9-carboxylic acid] | 0.001

From patent publication US11013726B2 (Arbutus Biopharma Corporation, priority 2016, dated 2021)
